Experimental data reported in patent US11123324B2, “Immunomodulator” (priority 2016, dated 2021).
“Also recorded” adds a separate entry of the source.

Key:
[1] = tested on: B cells (mouse splenic cells); assay: In vitro class switching induction assay in mouse splenic cell culture with anti-mouse/rat CD40, isotype antibody titer by ELISA; type: cell-based; conditions: for IgE induction, secondary screening / IgG1 induction, secondary screening: ELISA; for IgE induction, secondary screening / IgG1 induction, secondary screening / IgA induction, secondary screening: 3.75 μM; for IgA induction, secondary screening: IgA sandwich ELISA, day 10 after addition; for IgE antibody production on day 7 / total IgG antibody production on day 7: Indolactam V 5, 10 μM
Method: Under conditions of free access to food and water, 5- to 8-week-old wild-type BALB/cAJcl (purchased from CLEA Japan, Inc.) was euthanized by cervical dislocation under isoflurane anesthesia. 70% Ethanol was sprayed, left abdomen was incised and the spleen was aseptically isolated. The spleen was subjected to a mild crushing treatment with two sterilized glass slides in a culture petri dish containing 5 ml of cell culture medium (RPMI1640 added with 10% FCS, 0.05 μM 2 ME, 80 μg/ml gentamicin) to give a splenic single cell suspension. The cell suspension was placed in a 15 ml tube, stood for 5 min, and the supernatant free of tissue debris was transferred to a new 15 ml tube. A washing operation was performed twice with the above-mentioned cell culture medium to give the number of viable cells. B cells occupy 35% of the viable cells and the number of B cells was obtained by calculation.
Based on the B cell number obtained in Example 1, the splenic cell suspension was diluted with the above-mentioned cell culture medium to 5×10^5/ml B cells, and the cells were added to a 24-well culture dish. The compound and cytokine were added to each well as shown in the results. […]
[…] As for ELISA capture antibody, each isotype antibody (unlabeled, mentioned later) was diluted to 2 μg/ml with 0.05 M Na2CO3 solution, added to ELISA plate (C96 MAXISORP NUNC-Immunoplate, Thermo Scientific) at 50 μl/well, and the plate was coated overnight at 4° C.
The next day, the coated ELISA plate was washed 3 times with 1×PBS. After washing, 1% BSA-added 1×PBS (50 μl) was added to each well and blocking was carried out at room temperature for 1 hr. During the blocking reaction, a dilution series of each culture supernatant was prepared using 1% BSA-added 1×PBS. The diluted sample was added to the plate after blocking at 50 μl/well, and the mixture was reacted at room temperature for 1 hr. Thereafter, a washing operation was performed 3 times with 0.05% Tween 20-added 1×PBS solution. Then, the secondary antibody (alkaline phosphatase-labeled) (0.5 μg/ml) that recognizes each isotype was added at 50 μl/well, and the mixture was reacted at room temperature for 1 hr. A washing operation was performed 3 times with 0.05% Tween 20-added 1×PBS solution, a substrate solution (Phosphatase substrate Sigma 104) was added, the mixture was placed under shading at room temperature to allow for color development, and the absorbance (405 nm) was measured with a plate reader. The antibody titer was shown as a relative absorbance value in a graph, or the absolute value was calculated from comparison with the standard isotype antibody and shown graphically.
In the primary screening, 3,337 kinds of compounds (provided by Drug Discovery Initiative, The University of Tokyo) were subjected to in vitro class switching assay. The final concentration of the compounds was 3.75 μM, and DMSO was added at a final concentration of 0.25% and anti-mouse/rat CD40 was added at a final concentration of 1 μg/ml to all wells including the wells added with cytokine. As a negative control, DMSO and CD40 were added.
In the secondary screening, 22 kinds of the candidate compounds obtained by the primary screening were screened. The culture conditions were the same as those in the primary screening. As the positive control, each isotype control antibody (1 μg/ml) was added. […] Compound No. 2 (Sapintoxin D), No. 12 (PMA) and No. 18 (ROPA) were all protein kinase C (PKC) activators.
From the results of the secondary screening, a substance that specifically induces IgA is a PKC activator and it has a characteristic cyclic structure. As compounds having a similar structure, 17 kinds of compounds (K1-K17) including the above-mentioned 3 kinds were provided by the library of Drug Discovery Initiative, The University of Tokyo. […]

[2] = tested on: B cells (splenic cells); assay: Dose dependency of class switching induction by compound alone (no CD40), isotype ELISA; type: cell-based, mouse; conditions: 7 days; for IgA production by single stimulation free of CD40: each concentration tested (bryostatin 1 0-50 nM, 0-100 nM; Indolactam V 0-100 μM); for induction of IgE by single stimulation free of CD40 / induction of IgG by single stimulation free of CD40: each concentration tested
Method: Indolactam V and bryostatin 1 (Santa Cruz Biotechnology) were purchased, and induction of class switching was performed using splenic cells. To confirm dose dependency of compounds, stimulation was performed at the concentrations shown in FIG. 12, FIG. 13 and FIG. 14. For cell culture, the cells were added to each well of a 6 well plate at 1.0×10^6 B cells/1 ml/well and cultured for 7 days. The cells were cultured without adding anti-mouse/rat CD40 to all wells and the negative control was added with culture medium alone. Stimulation with each cytokine was used as a positive control. The final concentration of each cytokine was 1 μg/ml for anti-mouse/rat CD40, 12.5 ng/ml for IL-4, 20 μg/ml for LPS as in the above-mentioned experiments.
The antibody titer measurement of each isotype by ELISA was performed by a method similar to that mentioned above. As a result, it was confirmed at each concentration tested that IgA was produced and induction of IgG and IgE was not observed by single stimulation with each of bryostatin 1 and Indolactam V free of CD40.

[3] = tested on: alpha germline transcript; assay: RT-PCR confirmation of expression of alpha germline transcript in stimulated splenic cells; type: cell-based, mouse; conditions: day 3 of stimulation; for expression of alpha germline transcript (RT-PCR): FIG. 11
Method: (§1) As evidence that class switching is in progress, the expression of alpha germline transcript and AID was confirmed by RT-PCR. Splenic cells were first stimulated with compound or cytokine under the same conditions as in Example 2. On day 3 of stimulation, floating cells were recovered and total RNA was extracted. cDNA was synthesized using random primers and RT-PCR was performed using the following primers.
(§2) PCR was performed using rTaq (TAKARA) and under the following conditions: […]

[4] = tested on: AID; assay: RT-PCR confirmation of expression of AID in stimulated splenic cells; type: cell-based, mouse; conditions: day 3 of stimulation; for expression of AID (RT-PCR): FIG. 11
Method: as §1, §2

[5] = stated as known / considered, not tested; cited from earlier work
[6] = tested on: cultured splenic cells; assay: Proliferation / cell number of cultured splenic cells under stimulation; type: cell-based, mouse
Method: Based on the B cell number obtained in Example 1, the splenic cell suspension was diluted with the above-mentioned cell culture medium to 5×10^5/ml B cells, and the cells were added to a 24-well culture dish. The compound and cytokine were added to each well as shown in the results. DMSO was added such that the concentration of DMSO, which is a solvent of the compound was equivalent in each well (final concentration 0.25%). A mixed culture medium of the compound and splenic cells was subjected to static culture for one week under conditions of 37° C., 5% CO2.
Thus, a substance that has properties as a PKC activator but is free of carcinogenicity was searched for and bryostatin 1 (Santa Cruz Biotechnology sc-201407) was obtained as a candidate (FIGS. 6 and 7). […] Since bryostatin is a substance having a structure completely different from those of the compounds tested in the tertiary screening, those of ordinary skill in the art in consideration of the results of Example 3 and Example 4 readily appreciate that PKC activators in general can be used as substances that induce specific class switching to IgA. In the experiments shown in FIG. 6 and FIG. 7, the final concentration of Indolactam V was 5 μM and 10 μM from the left, and the final concentration of bryostatin 1 was 1 nM, 5 nM, 10 nM from the left.
It was considered to be more than the survival and maintenance of IgA-producing cells originally existed in the spleen. Expression of both transcripts was low when CD40 was not added for bryostatin 1. This may reflect the difference in the amount of cDNA used for RT-PCR.

Compound	IgE induction, secondary screening ([1]; with CD40)	IgG1 induction, secondary screening ([1]; with CD40)	IgE antibody production on day 7 ([1]; bryostatin 1 1, 5, 10 nM)	total IgG antibody production on day 7 ([1]; bryostatin 1 1, 5, 10 nM)	IgA production by single stimulation free of CD40 [2]	induction of IgE by single stimulation free of CD40 [2]	induction of IgG by single stimulation free of CD40 [2]	expression of alpha germline transcript (RT-PCR) [3]	expression of AID (RT-PCR) [4]	carcinogenicity [5]	other results
CNc1ccccc1C(=O)O[C@@H]1[C@@H](C)[C@@]2(O)[C@@H](C=C(CO)C[C@]3(O)C(=O)C(C)=C[C@@H]23)[C@@H]2C(C)(C)[C@]12OC(C)=O [Compound No. 2, Sapintoxin D]	did not induce	did not induce	–	–	–	–	–	–	–	–	IgA induction, secondary screening ([1]; with CD40): induced IgA; also recorded: specifically induce IgA
CC(C)[C@H]1C(=O)N[C@H](CO)Cc2c[nH]c3cccc(c23)N1C [Indolactam V]	–	–	scarcely produced	scarcely produced	produced; also recorded: Only the induction of IgA is shown to occur	not observed	not observed	observed	observed	strong carcinogenicity	IgA inducing activity, tertiary screening ([1]; culture supernatant one week later, with CD40, Indolactam V 1-7 μM): very strong; IgA specific class switching, tertiary screening ([1]; triplicate, culture supernatant one week later, with CD40, Indolactam V 1, 3, 3.75, 5, 7 μM): induced IgA specific class switching; also recorded: best effect
CCC/C=C/C=C/C(=O)O[C@H]1/C(=C/C(=O)OC)C[C@H]2C[C@H]([C@@H](C)O)OC(=O)C[C@H](O)C[C@@H]3C[C@H](OC(C)=O)C(C)(C)[C@](O)(C[C@@H]4C/C(=C/C(=O)OC)C[C@H](/C=C/C(C)(C)[C@]1(O)O2)O4)O3 [bryostatin 1]	–	–	scarcely produced	scarcely produced	produced; also recorded: Only the induction of IgA is shown to occur	not observed	not observed	observed	observed	did not show carcinogenicity	IgA induction potency compared with Indolactam V ([1]; Example 4, FIG. 6): inferior; specific class switching to IgA (Example 4) ([1]; Example 4, FIGS. 6 and 7): induces specific class switching to IgA; IgA antibody titer on day 5 compared to the negative control (0.02% DMSO+CD40) ([1]; bryostatin 1 1, 5, 10 nM, with CD40, day 5): increased significantly; IgA antibody titer on day 7 ([1]; bryostatin 1 1, 5, 10 nM, with CD40, day 7): low; expression of alpha germline transcript (RT-PCR), CD40 not added ([3]; without CD40): low; expression of AID (RT-PCR), CD40 not added ([4]; without CD40): low; proliferation of cultured cells, compound alone ([6]; bryostatin 1 alone (Example 5)): scarcely observed; proliferation of cultured cells ([6]; bryostatin 1 stimulation (Example 4)): scarcely observed; cell number on day 7 ([6]; stimulated with bryostatin 1, day 7): extremely small
CCCCCCCCCCCCCC(=O)O[C@@H]1[C@@H](C)[C@@]2(O)[C@@H](C=C(CO)C[C@]3(O)C(=O)C(C)=C[C@@H]23)[C@@H]2C(C)(C)[C@]12OC(C)=O [compound 12, phorbol 12-myristate 13-acetate]	did not induce	did not induce	–	–	–	–	–	–	–	–	IgA induction, secondary screening ([1]; with CD40, listed as No. 12): induced IgA; also recorded: specifically induce IgA
Resiniferonol-9,13,14-orthophenyl acetate [compound 18]	did not induce	did not induce	–	–	–	–	–	–	–	–	IgA induction, secondary screening ([1]; with CD40, listed as No. 18): induced IgA; also recorded: specifically induce IgA
